# According to patent publication US20230416852A1, “METHODS FOR IDENTIFYING COMPOSITIONS FOR INHIBITING VIRAL INFECTIVITY” (priority 2020, published 2023):
# Read-outs that look alike come from different tables or passages of the source.
# Key:
# [1] = target: T1, Vif function of inhibiting A3G CDA (Human immunodeficiency virus type 1 group M subtype B, UniProt P69723); assay: biochemical; assay type: biochemical, HIV-1; conditions: for hit for restoring A3G CDA in the presence of Vif: 10 μM compounds, 20% cutoff stringency, i.e. 20% increase in A3G CDA versus controls, positive control set as 1
# T1 sequence (P69723 whole entry): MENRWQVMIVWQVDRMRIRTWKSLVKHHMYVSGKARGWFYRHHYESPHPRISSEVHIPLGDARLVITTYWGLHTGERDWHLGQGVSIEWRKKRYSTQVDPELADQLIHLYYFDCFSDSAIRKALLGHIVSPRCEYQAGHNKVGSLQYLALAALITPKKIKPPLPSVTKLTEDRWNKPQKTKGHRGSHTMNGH
# Text: The A3G CDA edits the CCC sequence to predominantly to a CCU sequence. To specifically measure the C to U rate, three reverse primers R1, R2, and R3 were designed in the initial study.
# Using the qPCR-based screening assay described in Example 1, the NCI Diversity Set VI, NCI Mech Set V, and NIH SMR were screened against Vif function of inhibiting A3G. The NCI Diversity Set VI was derived from almost 140,000 compounds available for distribution in the library of the NCI Developmental Therapeutics Program. […] The qPCR-based CDA assay was used to screen the libraries in 96-well plates with negative controls (no A3G and Vif), positive control (no Vif), and 10 μM compounds. Hits were selected at 20% cutoff stringency (above 0.2), i.e., 20% increase in A3G CDA versus controls. Any compounds that restored A3G activity by 20% or more were selected. The positive control was set as 1.
# [2] = target: T1, Vif function of inhibiting A3G CDA; assay type: biochemical, HIV-1; conditions: dose-response retest in qPCR-based CDA assay
# [3] = target: T1, Vif function of inhibiting A3G CDA; assay type: biochemical, HIV-1
# Text: This assay detects C to U mutation using a highly specific Stu I restriction enzyme digestion method. FIG. 4A is a schematic diagram of the PCR and restriction digestion-based CDA assay. CCC-150 is converted to CCU-150 under the enzymatic activity of A3G. […] In the presence of Vif, Vif will inhibit A3G enzymatic activity, so that reduced or no CCU-150 will be produced. Therefore, less or no Stu I cutting sites will form, and no digestion will occur.
# The CDA products were subjected to PCR followed by Stu I digestion. The digestion products were applied to a 10% polyacrylamide gel for separation. SYBR Gold was used to visualize the bands. L-Cefixime refers to Compound I identified above.
# HIV IIIB virus = assay: MAGI assay of HIV infectivity in TZM-bl cells; assay type: cell-based, HIV-1; conditions: Human immunodeficiency virus 1, IIIB, 48 h, read-out: IC50 antiviral activity
# Text: MAGI assay is a classical method for measuring HIV infectivity (Platt E J et at J Virol 72:2855-2864 (1998)). The assay involves HIV infecting a reporter cell line, the TZM-bl cell line (Platt E J et at J Virol 72:2855-2864 (1998); Derdeyn C A et al. J Virol 74:8358-8367 (2000); Wei X et al. Antimicrob Agents Chemother 46:1896-1905 (2002)). The TZM-bl cell line is a Hela cell derivative that expresses CD4, rendering the cells permissive to HIV-1 infection. These cells also contain an integrated LTR-luciferase and β-galactosidase reporter genes, resulting in expression of firefly luciferase and β-galactosidase protein following HIV-1 integration and subsequent expression of the viral transactivator, Tat.
# 300 ng of p24 content of HIV IIIB virus was used to infect TZM-bl cells. Different doses of Compound II (redoxal) and C5 were used to treat the infected cells. DMSO treatment was used as a control. Two days post-infection, cells were fixed and β-galactosidase was stained to visualize the infected cells.
# [4] = system: A3G expression, Gag expression and processing; assay: Western blot of A3G stability and Gag in transfected 293T cells; assay type: cell-based; conditions: 5 μM
# Description: An A3G expression vector was co-transfected with Vif, or with the empty vector as control. The A3G expression vector was also co-transfected with either a wild-type viral construct HXB2, Vif deficient viral construct HXB2ΔVif, or pcDNA3.1 (as a control) into 293T cells. Immediately following transfection, 5 μM Compound II (redoxal) was used to treat the 293T cells. After 48 hours post-transfection, culture supernatants were subjected to ultracentrifuge to pellet down the virus. Viral lysates were analyzed by Western blot.
# HIV in PBMC = conditions: previous report, Pery E et al. Virology 2015; cited from earlier work
smiles,measurement,setting,value
"O=c1c(-c2ccc(O)cc2)coc2cc(O)cc(O)c12 [III, genistein]",hit for restoring A3G CDA in the presence of Vif,[1],hits
same,activity in retest,[2],did not show any activity
O=c1c2ccccc2ncn1-c1ccc(Cl)cc1 [Compound V],hit for restoring A3G CDA in the presence of Vif,[1],hits
"COc1cc(-c2ccc(Nc3ccccc3C(=O)O)c(OC)c2)ccc1Nc1ccccc1C(=O)O [Compound II, redoxal]",EC50,[1],< 12.5 µM
same,hit for restoring A3G CDA in the presence of Vif,[1],hits
same,restoration of Stu I digestion product,[3]; 50 μM,dramatically restored the digestion product
same,IC50,HIV IIIB virus,< 4 µM
same,A3G expression,[4]; FIG. 8,enhances A3G expression independent of Vif
same,Gag processing patterns,[4]; FIG. 8,may alter Gag processing patterns
same,overall Gag expression,[4]; FIG. 8,reduces overall Gag expression
same,overall Gag expression,"[4]; FIG. 8, listed as redoxal",reduced overall Gag expression
same,IC50,HIV in PBMC,0.6 to 3 µM
"C[C@@H]1C/C=C/C=C/C=C/C=C/[C@H](O[C@@H]2O[C@H](C)[C@@H](O)[C@H](N)[C@@H]2O)C[C@@H]2O[C@](O)(C[C@@H](O)C[C@H]3O[C@@H]3/C=C/C(=O)O1)C[C@H](O)[C@H]2C(=O)O [IV, natamycin, reference compound]",hit for restoring A3G CDA in the presence of Vif,[1],hits
same,activity in retest,[2],did not show any activity
Cn1c(SCc2ccccn2)nc2c1c(=O)[nH]c(=O)n2C [Compound VII],hit for restoring A3G CDA in the presence of Vif,[1],hits
"C=CC1=C(C(=O)O)N2C(=O)[C@@H](NC(=O)/C(=N\OCC(=O)O)c3csc(N)n3)[C@H]2SC1 [Compound I, cefixime, reference compound]",EC50,[1],> 500 µM
same,hit for restoring A3G CDA in the presence of Vif,[1],hits
same,restoration of Stu I digestion product,[3]; 10 μM,dramatically restored the digestion product
Oc1ccccc1-c1nc2c3ccccc3c3ccccc3c2[nH]1 [Compound VI],hit for restoring A3G CDA in the presence of Vif,[1],hits
